Earlier results in US20140256761A1, “ENHANCED ARTEMISININ-BASED COMBINATION THERAPY FOR TREATING PARASITIC MEDIATED DISEASE” (priority 2009, published 2014).

Tests used:
[1] = in water or oils
[2] = in vivo
[3] = generally considered

Q: Which solubility [1] does the source give for `CO[C@H]1O[C@@H]2O[C@@]3(C)CC[C@H]4[C@H](C)CC[C@@H]([C@H]1C)[C@@]24OO3` [artemether, (+)-(3-alpha,5a-beta,6-beta,8a-beta, 9-alpha,12-beta,12aR)-decahydro-10-methoxy-3,6,9-trimethyl-3,12-epoxy-12H-pyrano(4,3-j)-1,2-benzodioxepin] here?
A: Its solubility is “lipid-soluble”.

Q: Which solubility [1] does the source give for `C[C@@H]1CC[C@H]2[C@@H](C)C(=O)O[C@@H]3O[C@@]4(C)CC[C@@H]1[C@]32OO4` [artemisinin] here?
A: Its solubility is “sparingly soluble”.

Q: For `C[C@H]1[C@H](OC(=O)CCC(=O)O)O[C@@H]2O[C@@]3(C)CC[C@H]4[C@H](C)CC[C@@H]1[C@@]24OO3` [artesunate, 3R,5aS,6R,8aS,9R,10S,12R,12aR)-Decahydro-3,6,9-trimethyl-3,12-epoxy-12H-pyrano(4,3-j)-1,2-benzodioxepin-10-ol hydrogen succinate], which solubility [1] is on record?
A: The solubility was “water-soluble”.

Q: Which “absorption from the gastro-intestinal tract” value [2] does the source give for `COc1cc(NC(C)CCCN)c2ncccc2c1` (centres unmarked) [Primaquine] here?
A: The value was “readily absorbed”.

Q: For `COc1ccc2cc3[n+](cc2c1OC)CCc1cc2c(cc1-3)OCO2` [Berberine, (5,6-Dihydro-9,10-dimethoxybenzo[g]-1,3-benzodioxolo[5,6-a]quinolizinium)], which toxicity [3] is on record?
A: The toxicity was “non-toxic”.
